This is an account of results in patent publication EP4711366A1, “PYRIMIDO MACROHETEROCYCLIC COMPOUND AS WEE1-YES DUAL-TARGET INHIBITOR AND USE THEREOF” (Mindrank AI Ltd., priority 2023, dated 2024).

For data set [1], the system named is Human ovarian cancer OVCAR-3 cells. The data set can be described thus: In vivo efficacy study against OVCAR-3 tumors (subcutaneous tumor-bearing model). Also on record: species or system BALB/c nude mice. The note with it: 80mg/kg, PO, QD×28. How it is done: Human ovarian cancer OVCAR-3 cells were subcultured and expanded in an RPMI-1640 culture medium containing 20% FBS and 0.01 mg/mL bovine insulin. BALB/c nude mice aged 6-8 weeks were taken and each subcutaneously injected with 5 × 10^6 cells to establish a tumor-bearing model. The tumor volume was monitored, and when the tumor volume reached about 150 mm^3, the animals were randomized into 5 groups according to body weight and tumor volume. The animals were given, by oral gavage, the vehicle or compounds to be tested (ZN-c3 and IE) once daily for a total of 28 days. During the period of administration, the tumor volume and the animal body weight were measured twice a week, and the animals' states were observed daily. At the endpoint, the animals were euthanized with carbon dioxide, and the subcutaneous tumors were isolated and weighed.
The data calculation formulae are shown below: The tumor volume (TV) was calculated using the formula 1/2×axb^2, where a and b represent the length and width measurements of the tumor, respectively.
The tumor growth inhibition rate (%TGITV) was calculated using the formula (1 - TVT/TVC) × 100%, where TVc represents the average tumor volume of the negative control group, and TVT represents the average tumor volume of the treatment group.
The relative tumor volume (RTV) was calculated using the formula Vt/V0, where V0 represents the tumor volume at the time of grouping, and Vt represents the tumor volume at each measurement.

The nature of data set [2]: Equilibrium solubility study of polymorphs in different vehicles. The note with it: 37±2 °C, suspension ~10 mg/mL; for Equilibrium solubility: 24 h, 1440 min, in mg/mL (unit assumed). Type of data set: physicochemical. How it is done:
The equilibrium solubility of the crystal forms A, B, C, and D of compound (IE) was tested in water (H2O), fasted state simulated gastric fluid (FaSSGF), fasted state simulated intestinal fluid (FaSSIF), and fed state simulated intestinal fluid (FeSSIF). In the test, the solids were suspended in corresponding buffers to formulate suspensions (~10 mg/mL) and mixed at 37±2 °C. After 24 h, samples of the suspensions were taken. The supernatant was filtered, and the concentration was determined.

Data set [3] can be described thus: Solid-state stability study of polymorphs. Type of data set: physicochemical. The note with it: for Initial purity (%): HPLC purity before storage.
The mark [4] stands for this setting: 25 °C/60% RH, 7 days (long-term).
Setting [5] is: 40 °C/75% RH, 7 days (accelerated).
Setting [6] is: 60 °C, 7 days (high-temperature, RH < 30%).
Where [7] appears, read: long-term conditions for 7 days.
The mark [8] stands for this setting: high-temperature and accelerated conditions for 7 days.

Converted amounts (≈) assume the structure as drawn.

As to `C=CCn1c(=O)c2cnc(Nc3ccc(N4CCN(C)CC4)cc3)nc2n1-c1cccc(C(C)(C)O)n1` [AZD-1775, reference compound], in data set [1], the “Relative tumor inhibition (%) Day 28” value was 58.28% and the “Relative tumor volume Day 28” value is listed as 2.18.
Regarding `Cc1cc(Nc2ncc3c(=O)n4n(c3n2)-c2cccc(n2)[C@](C)(O)CC/C=C\C4)ccc1OC1CCN(C)CC1` [Crystal form A of compound IE], the Equilibrium solubility in data set [2] (FaSSGF) was more than 10; in data set [2] (FaSSIF), 1.73; in data set [2] (FeSSIF), 0.27. The figures for the Crystal form entry in data set [3] (setting [4]), in data set [3] (setting [5]) and in data set [3] (setting [6]) were “Crystal form A”, “Crystal form E” and “Crystal forms A+E”, respectively. Further, the “Purity (%)” value in data set [3] (setting [4]) is 98.01%; in data set [3] (setting [5]) it was 98.11%; in data set [3] (setting [6]) it was 98.06%. The “Initial purity (%)” value in data set [3] was found to be 98.08%. The “solid-state stability (in words)” value in data set [3] (setting [7]) is recorded as “remained stable”.
For the compound `Cc1cc(Nc2ncc3c(=O)n4n(c3n2)-c2cccc(n2)[C@](C)(O)CC/C=C\C4)ccc1OC1CCN(C)CC1` [Crystal form B of compound IE], the Equilibrium solubility in data set [2] (FaSSGF) is reported as more than 10; in data set [2] (FaSSIF) it was 1.23; in data set [2] (FeSSIF), 2.07. For the same compound, the Crystal form result in data set [3] (setting [4]), in data set [3] (setting [5]) and in data set [3] (setting [6]) was “Crystal form B” throughout. The “Purity (%)” value in data set [3] (setting [4]) amounted to 98.01%; in data set [3] (setting [5]), 98.25%; in data set [3] (setting [6]), 98.24%. Further, the “Initial purity (%)” value in data set [3] is 97.97%. The “solid-state stability (in words)” value in data set [3] (setting [8]) and in data set [3] (setting [7]) was “remained stable” throughout.
Take `Cc1cc(Nc2ncc3c(=O)n4n(c3n2)-c2cccc(n2)[C@](C)(O)CC/C=C\C4)ccc1OC1CCN(C)CC1` [Crystal form C of compound IE]: the figures for the Equilibrium solubility in data set [2] (FaSSGF), in data set [2] (FaSSIF) and in data set [2] (FeSSIF) were more than 10, 0.710 and 1.299, respectively. For the same compound, the Crystal form entry in data set [3] (setting [4]), in data set [3] (setting [5]) and in data set [3] (setting [6]) was “Crystal form C” throughout. The “Purity (%)” value is on record as 98.75% in data set [3] (setting [4]), 98.73% in data set [3] (setting [5]) and 98.72% in data set [3] (setting [6]). The “Initial purity (%)” value in data set [3] is reported as 98.74%. Also, the “solid-state stability (in words)” value in data set [3] (setting [8]) and in data set [3] (setting [7]) was “remained stable” throughout.
A word on the thermodynamic solubility: it is solubility found after equilibrating the solid with the medium. For the compound `Cc1cc(Nc2ncc3c(=O)n4n(c3n2)-c2cccc(n2)[C@](C)(O)CC/C=C\C4)ccc1OC1CCN(C)CC1` [Crystal form D of compound IE], the Equilibrium solubility in data set [2] (FaSSIF) is 0.81; in data set [2] (FeSSIF) it was 0.11. Also, in data set [2] (fassgf), the thermodynamic solubility at 24 h was found to be 8440 µg/mL (≈ 15.6 mM). The Crystal form entry in data set [3] (setting [4]), in data set [3] (setting [5]) and in data set [3] (setting [6]) was “Crystal form D” each time. The “Purity (%)” value in data set [3] (setting [4]) came out at 97.82%; in data set [3] (setting [5]), 97.87%; in data set [3] (setting [6]) it was 97.74%. Also, in data set [3], the “Initial purity (%)” value is 97.79%. For the same compound, the “solid-state stability (in words)” value in data set [3] (setting [8]) and in data set [3] (setting [7]) was “remained stable” each time.
